Assays:
SNB-19 [1] = test: Compound was evaluated in vitro against NCI CNS cancer cell line SNB19; Not active; format: functional, cell-based, Homo sapiens
SNB-19 [2] = test: Compound was evaluated in vitro against NCI CNS cancer cell line SNB19; format: functional, cell-based; details: Homo sapiens

SMILES | IC50 (SNB-19 [1]) | IC50 (SNB-19 [2])
Nc1nn([C@@H]2O[C@H](COCc3ccccc3)[C@@H](OCc3ccccc3)[C@H]2OCc2ccccc2)c(=S)s1 | Not Active | –
Nc1nn(C2O[C@H](CO)[C@@H](O)[C@H]2O)c(=S)s1 (some centres not stated) | – | 0.0394 µM
